In patent publication US8895552B2, “Cyclic amide derivative” (Sumitomo Dainippon Pharma Co., Ltd., priority 2010, dated 2014):

Target: T1, cortisone reductase (11βHSD1) (Mus musculus, UniProt P50172)
T1 construct: host or cells: primary cells from visceral fat tissue of ICR male mice, differentiated to adipocytes in culture
Experiment: Inhibitory activity assay against cortisone reductase of mouse primary adipocytes
Format: cell-based
Conditions: differentiated primary adipocytes from visceral fat of ICR male mice, 100 nM [1,2-3H] cortisone, 37° C., read-out: IC50 against cortisone reductase of mouse adipose cell
Description: Experiment 2: Inhibitory Activity Assay Against Cortisone Reductase of Mouse Primary Adipocytes
The adipose tissues adhered to the mesenterium and around the testicle of ten ICR male mice (9 to 11 weeks old, Japan SLC Inc.) (hereinafter, referred to as visceral fat tissue) were soaked in about 100 mL of a phosphate buffer (0.20 g/L KCl, 0.20 g/L KH2PO4, 8.00 g/L NaCl, 2.16 g/L Na2HPO4.7H2O, 100 unit/ml penicillin (GIBCO), 100 μg/ml streptomycin (GIBCO), 250 ng/ml amphotericin (GIBCO)) and washed at room temperature.
The excised visceral fat tissues was cut finely in about 5×5 mm with scissors in Dulbecco's modified Eagle medium (about 50 ml, containing 4.5 g/L D-glucose and 584 mg/L L-glutamine, GIBCO) to which collagenase (Type II, Sigma), penicillin (GIBCO), streptomycin (GIBCO) and amphotericin (GIBCO) were added in an amount so that the final concentrations thereof are adjusted to 1 mg/ml, 100 unit/ml, 100 μg/ml and 250 ng/ml, respectively. Then, the mixture was shaken at 37° C. for 30 minutes (about 170 rpm), filtered through nylon mesh (80S [the pore size: 250 μm], SANSHIN INDUSTRIAL CO., LTD.), and the filtrate (cell suspension) was collected. This filtrate was centrifuged at 1800 rpm at room temperature for 5 minutes, and then, the liquid layer was removed stilly by decantation to give a precipitate. This precipitate was suspended in Dulbecco's modified Eagle medium (30 ml, containing 4.5 g/L D-glucose and 584 mg/L L-glutamine, GIBCO; hereinafter, occasionally referred to as FBS-containing medium), to which fetal bovine serum (hereinafter referred to as FBS, GIBCO), ascorbic acid (Wako Pure Chemical Industries, Ltd.), penicillin (GIBCO), streptomycin (GIBCO) and amphotericin (GIBCO) are added thereto in an amount so that the final concentrations thereof were adjusted to 10%, 200 μM, 100 units/ml, 100 μg/ml and 250 ng/ml, respectively, and then the suspension was filtered through a nylon mesh (420S [pore size: 25 μm], SANSHIN INDUSTRIAL CO., LTD.). The filtrate was collected, and centrifuged at 1800 rpm at room temperature for 5 minutes. The liquid layer was removed stilly by decantation, and the precipitate was suspended again in the FBS-containing medium (30 ml). This suspension was treated by the same procedure (centrifugation, removal of liquid layer, suspension in FBS-containing medium) two times more, and the suspension (90 ml) was prepared. This suspension was put into cell culture flasks (T150, for adhered cell culture, Iwaki Glass) in a each volume of 30 ml, and incubated at 37° C. in the presence of 5% CO2. At 5 to 6 hours after starting incubation, the medium was removed, and the wall of the flask was washed with the above-mentioned phosphate buffer (15 ml). The washing liquid was removed, and the washing procedure was repeated again, and the phosphate buffer was removed. To the flask was added FBS-containing medium (30 ml), and the mixture was incubated at 37° C. in the presence of 5% CO2. On Day 1 or Day 2 after the culture started, the medium was removed, and the wall of the flask was washed with the phosphate buffer (15 ml) once. To the flask was added a trypsin-ethylenediamine tetraacetate (hereinafter, referred to as trypsin-EDTA) solution (0.05% trypsin, 0.53 mM EDTA.4Na, GIBCO) in such a volume that the cells are duly soaked, and the mixture was allowed to stand at 37° C. for 5 minutes. To this mixture was added the FBS-containing medium in about 10-times volume of that of the trypsin-EDTA solution, and then the cell suspension was obtained.
The cells in the cell suspension were counted with a counting chamber, and the cell suspension was diluted with the FBS-containing medium so that the concentration of the cell was adjusted to 1.4×10^5 cells/ml. Thus obtained cell dilution was put into a 48-well plate (for adherent cell culture, Iwaki Glass) in an amount of 300 μl per well, and the plate was incubated at 37° C. in the presence of 5% CO2 for 1 to 2 day(s). […]

T1 sequence (P50172 whole entry): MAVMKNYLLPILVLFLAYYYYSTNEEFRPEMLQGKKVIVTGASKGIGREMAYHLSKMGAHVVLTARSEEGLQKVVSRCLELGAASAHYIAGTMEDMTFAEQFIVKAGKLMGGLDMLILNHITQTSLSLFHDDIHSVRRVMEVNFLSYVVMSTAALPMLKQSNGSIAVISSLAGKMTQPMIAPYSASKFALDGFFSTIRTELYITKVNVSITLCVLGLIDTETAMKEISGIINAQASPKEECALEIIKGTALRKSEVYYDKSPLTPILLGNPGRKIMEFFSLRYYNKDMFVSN

IC50 [nM] | SMILES
4.8 | COc1cc(C(=O)c2cccn2C)ccc1C(=O)NC1C2CC3CC1CC(O)(C3)C2 (stereo not drawn) [Example 55]
11.7 | Cc1cc(C(=O)c2cccs2)sc1C(=O)NC1C2CC3CC1CC(O)(C3)C2 (stereo not drawn) [Example 10]
9.6 | CCc1cc(C(=O)C(C)(C)c2ccccc2)n(C)c1C(=O)NC1C2CC3CC1CC(O)(C3)C2 (stereo not drawn) [Example 505]
20.7 | Cn1c(C(=O)c2ccccc2F)cc(Cl)c1C(=O)NC1C2CC3CC1CC(O)(C3)C2 (stereo not drawn) [Example 514]
11.1 | Cc1cc(C(=O)C2CCOCC2)sc1C(=O)N[C@H]1C2CC3CC1C[C@](O)(C3)C2 [Example 9]
3.2 | CCOc1cc(C(=O)c2cc(F)ccc2F)ccc1C(=O)NC1C2CC3CC1CC(O)(C3)C2 (stereo not drawn) [Example 258]
25 | CCc1cc(C(=O)c2c(F)cccc2F)n(C)c1C(=O)NC1C2CC3CC1CC(O)(C3)C2 (stereo not drawn) [Example 487]
18.4 | CCc1cc(C(=O)c2cccn2C)n(C)c1C(=O)NC1C2CC3CC1CC(O)(C3)C2 (stereo not drawn) [Example 485]
5.1 | Cc1cc(C(=O)c2cccn2C)sc1C(=O)NC1C2CC3CC1CC(O)(C3)C2 (stereo not drawn) [Example 11]

Target: T2, 11βHSD1 (Homo sapiens, UniProt P28845)
T2 construct: host or cells: normal human visceral preadipocytes differentiated to adipocytes
T2 sequence (P28845 whole entry): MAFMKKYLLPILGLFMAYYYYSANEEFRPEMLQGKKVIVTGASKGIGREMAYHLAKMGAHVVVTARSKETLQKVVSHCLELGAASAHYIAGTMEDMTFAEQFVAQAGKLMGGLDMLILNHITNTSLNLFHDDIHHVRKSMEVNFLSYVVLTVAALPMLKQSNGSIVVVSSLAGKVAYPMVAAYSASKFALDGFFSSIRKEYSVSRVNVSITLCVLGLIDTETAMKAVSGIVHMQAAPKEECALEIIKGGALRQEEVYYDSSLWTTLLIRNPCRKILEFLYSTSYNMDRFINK
Experiment: Inhibitory activity assay against cortisone reducing activity of cultured human adipocytes
Format: cell-based
Conditions: differentiated normal human preadipocytes (HPrAD-vis), 100 nM [1,2-3H] cortisone, 37° C., read-out: IC50 against cortisone reducing activity of human adipose cell
Description: Experiment 1: Inhibitory Activity Assay Against Cortisone Reducing Activity of Cultured Human Adipocytes
Normal human preadipocytes (HPrAD-vis, manufactured by Cambrex corporation) were inoculated onto a 48-well cell culture plate, and the differentiation induction was carried out according to Protocol attached to the kit. The medium for the cells on the 9-11 days of the differentiation was changed to D-MEM medium (0.2 ml; manufactured by GIBCO) containing 100 nM [1,2-^3H] cortisone (1 μCi/well, manufactured by Muromachi Yakuhin), 0.5% dimethylsulfoxide and a test compound (for test compound treated group, or dimethylsulfoxide only for the no-test compound treated group). The plate was incubated at 37° C. for 3 hours, and then the whole medium was collected. As a background group, the medium without cell was used. The medium was mixed with ethyl acetate (0.1 ml) in an Eppendorf tube. This mixture was voltexed, and then further centrifuged at 5,000 rpm for one minute at room temperature to separate the ethyl acetate (the upper layer). The ethyl acetate (10 μl) was spotted on an aluminium plate for thin layer chromatography (silica gel 60 angstrom, Merck & Co., Inc., hereinafter referred to as TLC plate). The developing solvent (chloroform/methanol (90:10, v/v)) was put into a sealed vessel, and the TLC plate was developed, and then dried at room temperature. An imaging plate (TR-2040, Fujifilm) was exposed onto the dried TLC plate for 16 hours or more. After the exposure was completed, the imaging plate was analyzed by Bioimage Analyzer (BAS2500, Fujifilm), and the [^3H] radioactivity was measured at the corresponding position of cortisol developed on the TLC plate. The inhibitory activity of a test compound against cortisone reducing activity was calculated according to the following equation. (inhibitory activity(%))=100×((group without test compound)−(group with test compound))/((group without test compound)−(background group))
The IC50 value was calculated by linear regression of logarithmic value of the concentration of test compound and the inhibitory activity value, using the data at 2 points showing around 50% of the inhibitory activity. […] The IC50 value of the following compounds of the present invention against cortisone reducing activity of human adipose cell was determined.

IC50 [nM] | SMILES
< 3 | CCCc1cc(C(=O)c2cccn2C)ccc1C(=O)NC1C2CC3CC1CC(O)(C3)C2 (stereo not drawn) [Example 424]
< 3 | COCc1cc(C(=O)c2ccccc2)ccc1C(=O)N[C@H]1C2CC3CC1C[C@](O)(C3)C2 [Example 51]
12 | O=C(Cc1ccccc1)c1ccc(C(=O)N[C@H]2C3CC4CC2C[C@](O)(C4)C3)c(Cl)c1 [Example 52]
9.5 | COCc1cc(C(=O)c2ccccn2)ccc1C(=O)NC1C2CC3CC1CC(O)(C3)C2 (stereo not drawn) [Example 429]
7.3 | CCc1cc(C(=O)C2(c3ccccc3)CCC2)n(C)c1C(=O)NC1C2CC3CC1CC(O)(C3)C2 (stereo not drawn) [Example 504]
4.2 | CCc1cc(C(=O)c2cccc(F)c2F)n(C)c1C(=O)NC1C2CC3CC1CC(O)(C3)C2 (stereo not drawn) [Example 488]
< 3 | Cn1c(C(=O)c2ccc(F)cc2)cc(Cl)c1C(=O)NC1C2CC3CC1CC(O)(C3)C2 (stereo not drawn) [Example 516]
< 3 | COCc1cc(C(=O)c2ccccc2)n(C)c1C(=O)N[C@H]1C2CC3CC1C[C@](O)(C3)C2 [Example 440, 5-Benzoyl-N-[(E)-5-hydroxyadamantan-2-yl]-3-(methoxymethyl)-1-methyl-1H-pyrrole-2-carboxamide]
3.6 | O=C(c1ccc(C(=O)NC2C3CC4CC2CC(O)(C4)C3)c(Cl)c1)c1ccccc1F (stereo not drawn) [Example 16]
1.4 | COCCc1cc(C(=O)c2ccccc2F)ccc1C(=O)N[C@H]1C2CC3CC1C[C@](O)(C3)C2 [Example 443, 4-(2-Fluorobenzoyl)-N-[(E)-5-hydroxyadamantan-2-yl]-2-(2-methoxyethyl)benzamide]
3 | CCc1cc(C(=O)c2ccc(F)cc2)ccc1C(=O)NC1C2CC3CC1CC(O)(C3)C2 (stereo not drawn) [Example 98]
3.7 | CCn1nccc1C(=O)c1ccc(C(=O)NC2C3CC4CC2CC(O)(C4)C3)c(COC)c1 (stereo not drawn) [Example 368]
< 3 | CCc1cc(C(=O)c2ccc(C)s2)n(C)c1C(=O)NC1C2CC3CC1CC(O)(C3)C2 (stereo not drawn) [Example 499]
2.8 | CCc1cc(C(=O)c2cccc(OC)c2F)n(C)c1C(=O)NC1C2CC3CC1CC(O)(C3)C2 (stereo not drawn) [Example 486]
< 3 | Cc1cc(C(=O)c2ccccc2)n(C)c1C(=O)N[C@H]1C2CC3CC1C[C@](O)(C3)C2 [Example 62]
1.5 | Cn1c(C(=O)c2cccc(F)c2)cc(Cl)c1C(=O)NC1C2CC3CC1CC(O)(C3)C2 (stereo not drawn) [Example 515]
4.3 | Cc1cc(C(=O)c2cccn2C)sc1C(=O)NC1C2CC3CC1CC(O)(C3)C2 (stereo not drawn) [Example 11]
16 | Cn1cccc1C(=O)c1ccc(C(=O)N[C@H]2C3CC4CC2C[C@](O)(C4)C3)c(Cl)c1 [Example 53]
